Test results as given in ChEMBL document CHEMBL5137037, “Phage Display Selected Cyclic Peptide Inhibitors of Kallikrein-Related Peptidases 5 and 7 and Their In Vivo Delivery to the Skin” (J Med Chem, 2022).
Numbered stars: 1 amine (or outer) side, 2 acyl side, 3 side chain; on linkers, the order of the positions; unused ones are H or OH. Bridge positions count the residues as written; N and C are the ends. Peptide text beside a SMILES is read from it. Pyridine(2,6-diCH2) = c1cc(C[*:1])nc(C[*:2])c1; CH2COCH2 = O=C(C[*:1])C[*:2]

Legend:
[1] = Stability of the compound in human plasma assessed as half life […] by LC-MS analysis; type: ADME, cell-free
Kallikrein-7 = Kallikrein-7 (Homo sapiens, UniProt P49862); test: Inhibition of C-terminal poly-His-tagged human recombinant KLK7 (30 to 253 residues) transfected in CHO cells assessed as inhibition constant using KHLY-pNA as fluorogenic substrate incubated for 30 mins by fluorescence plate reader assay; type: cell-based
Sequence of Kallikrein-7 (P49862 whole entry, the tested form may be a part): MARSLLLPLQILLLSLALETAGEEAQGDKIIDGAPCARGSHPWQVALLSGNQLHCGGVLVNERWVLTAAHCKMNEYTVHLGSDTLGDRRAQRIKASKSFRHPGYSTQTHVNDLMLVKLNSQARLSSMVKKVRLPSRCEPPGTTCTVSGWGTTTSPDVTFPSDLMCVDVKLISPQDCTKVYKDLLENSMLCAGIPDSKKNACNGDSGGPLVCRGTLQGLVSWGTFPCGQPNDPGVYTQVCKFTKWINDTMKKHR

Albumin = Albumin (Homo sapiens, UniProt P02768); test: Binding affinity to human serum albumin by fluorescence polarization assay
Sequence of Albumin (P02768 whole entry, the tested form may be a part): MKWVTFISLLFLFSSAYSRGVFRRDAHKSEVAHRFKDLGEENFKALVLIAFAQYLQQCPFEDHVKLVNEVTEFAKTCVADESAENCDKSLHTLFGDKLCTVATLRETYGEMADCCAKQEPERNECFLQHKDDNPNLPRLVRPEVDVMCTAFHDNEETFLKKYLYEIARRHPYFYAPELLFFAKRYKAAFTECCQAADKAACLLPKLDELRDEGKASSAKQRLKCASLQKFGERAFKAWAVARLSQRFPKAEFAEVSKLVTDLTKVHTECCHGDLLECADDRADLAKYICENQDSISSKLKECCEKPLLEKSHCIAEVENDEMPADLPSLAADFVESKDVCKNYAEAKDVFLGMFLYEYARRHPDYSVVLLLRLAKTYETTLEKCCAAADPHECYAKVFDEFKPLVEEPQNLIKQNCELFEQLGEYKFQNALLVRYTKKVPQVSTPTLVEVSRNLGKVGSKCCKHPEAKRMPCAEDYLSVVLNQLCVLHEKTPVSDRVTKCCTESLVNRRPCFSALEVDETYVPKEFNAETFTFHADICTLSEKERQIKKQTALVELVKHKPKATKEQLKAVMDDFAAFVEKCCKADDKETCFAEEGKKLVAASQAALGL

Kallikrein-5 = target: T1, Kallikrein-5 (Homo sapiens, UniProt Q9Y337); test: Inhibition of C-terminal poly-His-tagged human recombinant KLK5 (30 to 293 residues) transfected in CHO cells assessed as inhibition constant using Boc-VPR-AMC as fluorogenic substrate incubated for 30 mins by fluorescence plate reader assay; type: cell-based
T1 sequence (Q9Y337 whole entry): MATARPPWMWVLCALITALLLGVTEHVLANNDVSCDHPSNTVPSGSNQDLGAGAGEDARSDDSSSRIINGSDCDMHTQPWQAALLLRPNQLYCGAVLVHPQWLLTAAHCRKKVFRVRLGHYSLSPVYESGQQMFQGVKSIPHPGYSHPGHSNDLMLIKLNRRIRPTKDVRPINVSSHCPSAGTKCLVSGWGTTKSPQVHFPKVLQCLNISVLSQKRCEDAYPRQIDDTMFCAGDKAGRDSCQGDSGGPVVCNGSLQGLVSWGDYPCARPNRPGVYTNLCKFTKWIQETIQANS

[2] = Half life in C57BL/6J mouse at 6.2 mg/kg, iv by RP-HPLC analysis; type: ADME, organism-based; conditions: in vivo
[3] = Plasma concentration in C57BL/6J mouse at 6.2 mg/kg, ip measured upto 24 hrs by RP-HPLC analysis; type: ADME, organism-based
[4] = Drug degradation in C57BL/6J mouse at 6.2 mg/kg, iv measured at 21 to 22 mins by RP-HPLC analysis; type: ADME, organism-based; conditions: in vivo, time 21-22 min

Row | SMILES | half-life [1] | Kd (Albumin) | Ki (Kallikrein-5) | other results
1 | CCCCCCCCCCCCCCCC(=O)NCCCC[C@H](NC(=O)[C@H](CCC(=O)O)NC(=O)[C@H](Cc1ccc(O)cc1)NC(=O)[C@H](CCC(=O)O)NC(=O)COCCOCCNC(=O)c1ccc(-c2c3ccc(=O)cc-3oc3cc(O)ccc23)c(C(=O)O)c1)C(=O)N[C@@H](CCC(=O)O)C(=O)N[C@@H](Cc1ccc(O)cc1)C(=O)N[C@@H](CCC(=O)O)C(=O)NCCOCCOCC(=O)NCCCC[C@H](NC(=O)CNC(=O)[C@@H]1CSCC(=O)CSC[C@H](NC(=O)[C@@H]2CCCN2)C(=O)N[C@@H](CC(C)C)C(=O)N[C@@H](Cc2ccc(O)cc2)C(=O)N[C@@H](CCCC)C(=O)N[C@@H](C)C(=O)N[C@@H](CCCCNC(=N)N)C(=O)N1)C(=O)NCC(N)=O | 4 h |  |  | 
2 | CCCCCCCCCCCCCCCC(=O)NCCCC[C@H](NC(=O)[C@H](CCC(=O)O)NC(=O)[C@H](Cc1ccc(O)cc1)NC(=O)[C@H](CCC(=O)O)NC(=O)COCCOCCNC(=O)c1ccc(-c2c3ccc(=O)cc-3oc3cc(O)ccc23)c(C(=O)O)c1)C(=O)N[C@@H](CCC(=O)O)C(=O)N[C@@H](Cc1ccc(O)cc1)C(=O)N[C@@H](CCC(=O)O)C(=O)NCCOCCOCC(=O)NCCCC[C@H](NC(=O)CNC(=O)[C@@H]1CSCC(=O)CSC[C@H](NC(=O)[C@@H]2CCCN2)C(=O)N[C@@H](CC(C)C)C(=O)N[C@@H](Cc2ccc(O)cc2)C(=O)N[C@@H](CC(C)C)C(=O)N[C@@H](C)C(=O)N[C@@H](CCCNC(=N)N)C(=O)N1)C(=O)NCC(N)=O | 0.4 h | 0.164 µM |  | Ki (Kallikrein-7): 0.031 µM
3 | CCCCCCCCCCCCCCCC(=O)NCCCC[C@H](NC(=O)[C@H](CCC(=O)O)NC(=O)[C@H](Cc1ccc(O)cc1)NC(=O)[C@H](CCC(=O)O)NC(=O)COCCOCCNC(=O)c1ccc(-c2c3ccc(=O)cc-3oc3cc(O)ccc23)c(C(=O)O)c1)C(=O)N[C@@H](CCC(=O)O)C(=O)N[C@@H](Cc1ccc(O)cc1)C(=O)N[C@@H](CCC(=O)O)C(=O)NCCOCCOCC(=O)NCCCC[C@H](NC(=O)CNC(=O)[C@@H]1CSCC(=O)CSC[C@H](NC(=O)[C@@H]2CCCN2)C(=O)N[C@@H](CC(C)C)C(=O)N[C@@H](Cc2ccc(O)cc2)C(=O)N[C@@H](CCCC)C(=O)N[C@@H](C)C(=O)NCC(=O)N1)C(=O)NCC(N)=O | > 96 h |  |  | 
4 | CC(C)C[C@@H]1NC(=O)[C@@H](NC(=O)[C@H](CCC(N)=O)NC(=O)[C@@H]2CCCN2C(=O)[C@H](CC(N)=O)NC(=O)[C@H](C)NC(=O)[C@@H]2CSCC(=O)CSC[C@H](NC(=O)[C@H](C)N)C(=O)N[C@@H]([C@@H](C)O)C(=O)N[C@@H](CCCNC(=N)N)C(=O)N[C@@H](CCC(=O)O)C(=O)N[C@@H](Cc3ccc(O)cc3)C(=O)N[C@@H](CC(N)=O)C(=O)N3CCC[C@H]3C(=O)N[C@@H](CCC(N)=O)C(=O)N2)CSCC(=O)CSC[C@@H](C(=O)N[C@@H](Cc2cnc[nH]2)C(=O)O)NC1=O |  |  | 0.028 µM | 
5 | C[C@@H](O)[C@@H]1NC(=O)[C@@H](NC(=O)CN)CSCC(=O)CSC[C@@H](C(=O)O)NC(=O)[C@@H]2CCCN2C(=O)[C@H](Cc2ccc(O)cc2)NC(=O)[C@H](CCC(N)=O)NC(=O)[C@H](CCCNC(=N)N)NC1=O (H-GCTRQYPC-OH; linker 2-8 via CH2COCH2) | < 0.0833 h | 0.039 µM | 0.0022 µM | 
6 | CC(C)[C@H](NC(=O)[C@H]1CSCc2cccc(n2)CSC[C@@H](NC(=O)[C@H](CO)NC(=O)CNC(=O)[C@@H]2CCCN2C(=O)[C@@H](NC(=O)[C@H](CO)NC(=O)[C@H](CC(=O)O)NC(=O)[C@@H]2CSCc3cccc(n3)CSC[C@H](NC(=O)CN)C(=O)N[C@@H]([C@@H](C)O)C(=O)N[C@@H](CCCNC(=N)N)C(=O)N[C@@H](CCC(N)=O)C(=O)N[C@@H](Cc3c[nH]c4ccccc34)C(=O)N3CCC[C@H]3C(=O)N2)C(C)C)C(=O)N[C@@H]([C@@H](C)O)C(=O)N1)C(=O)O |  |  |  | Ki (Kallikrein-5; cho): 0.0027 µM
7 | CCCCCCCCCCCCCCCC(=O)NCCCC[C@H](NC(=O)[C@H](CCC(=O)O)NC(=O)[C@@H](Cc1ccc(O)cc1)NC(=O)[C@H](CCC(=O)O)NC(=O)COCCOCCNC(=O)c1ccc(-c2c3ccc(=O)cc-3oc3cc(O)ccc23)c(C(=O)O)c1)C(=O)N[C@@H](CCC(=O)O)C(=O)N[C@@H](Cc1ccc(O)cc1)C(=O)N[C@@H](CCC(=O)O)C(=O)NCCOCCOCC(=O)NCCCC[C@H](NC(=O)CNC(=O)[C@@H]1CSCC(=O)CSC[C@H](NC(=O)[C@@H]2CCCN2)C(=O)N[C@@H](CC(C)C)C(=O)N[C@@H](Cc2ccc(O)cc2)C(=O)N[C@@H](CCCC)C(=O)N[C@@H](C)C(=O)N[C@@H](CCCCNC(=N)N)C(=O)N1)C(=O)NCC(N)=O | > 96 h |  |  | half-life [2]: 6.2 h; concentration at 24 h [3]: 20 µM; Stability [4]: Unstable
8 | C[C@@H](O)[C@@H]1NC(=O)[C@@H](NC(=O)CN)CSCC(=O)CSC[C@@H](C(=O)O)NC(=O)[C@@H]2CCCN2C(=O)[C@H](Cc2c[nH]c3ccccc23)NC(=O)[C@H](CCC(=O)O)NC(=O)[C@H](CCCNC(=N)N)NC1=O |  |  | 0.0051 µM | 
9 | C[C@@H](O)[C@@H]1NC(=O)[C@@H](NC(=O)CN)CSCC(=O)CSC[C@@H](C(=O)O)NC(=O)[C@@H]2CCCN2C(=O)[C@H](Cc2ccc(O)cc2)NC(=O)[C@H](CCC(=O)O)NC(=O)[C@H](CCCNC(=N)N)NC1=O |  |  | 0.0032 µM | 
10 | CC(C)[C@H](NC(=O)[C@H]1CSCc2cccc(n2)CSC[C@@H](NC(=O)[C@H](CO)NC(=O)CNC(=O)[C@@H]2CCCN2C(=O)[C@@H](NC(=O)[C@H](CO)NC(=O)[C@H](CC(=O)O)NC(=O)[C@@H]2CSCc3cccc(n3)CSC[C@@H](NC(=O)CN)C(=O)N[C@@H]([C@@H](C)O)C(=O)N[C@@H](CCCNC(=N)N)C(=O)N[C@@H](CCC(N)=O)C(=O)N[C@@H](Cc3c[nH]c4ccccc34)C(=O)N3CCC[C@H]3C(=O)N2)C(C)C)C(=O)N[C@@H]([C@@H](C)O)C(=O)N1)C(=O)O |  |  |  | Ki (Kallikrein-5; cho): 0.002 µM
11 | CCCCCCCCCCCCCCCC(=O)NCCCC[C@H](NC(=O)[C@H](CCC(=O)O)NC(=O)[C@H](Cc1ccc(O)cc1)NC(=O)[C@H](CCC(=O)O)NC(=O)COCCOCCNC(=O)c1ccc(-c2c3ccc(=O)cc-3oc3cc(O)ccc23)c(C(=O)O)c1)C(=O)N[C@@H](CCC(=O)O)C(=O)N[C@@H](Cc1ccc(O)cc1)C(=O)N[C@@H](CCC(=O)O)C(=O)NCCOCCOCC(=O)N1CCC[C@H]1C(=O)N[C@H]1CSCC(=O)CSC[C@@H](C(=O)N[C@@H](CO)C(N)=O)NC(=O)[C@H](CCCNC(=N)N)NC(=O)[C@H](C)NC(=O)[C@H](CC(C)C)NC(=O)[C@H](Cc2ccc(O)cc2)NC(=O)[C@H](CC(C)C)NC1=O |  | 0.168 µM |  | Ki (Kallikrein-7): 0.106 µM
12 | CCCCCCCCCCCCCCCC(=O)NCCCC[C@H](NC(=O)[C@H](CCC(=O)O)NC(=O)[C@H](Cc1ccc(O)cc1)NC(=O)[C@H](CCC(=O)O)NC(=O)COCCOCCNC(=O)c1ccc(-c2c3ccc(=O)cc-3oc3cc(O)ccc23)c(C(=O)O)c1)C(=O)N[C@@H](CCC(=O)O)C(=O)N[C@@H](Cc1ccc(O)cc1)C(=O)N[C@@H](CCC(=O)O)C(=O)NCCOCCOCC(=O)N[C@H]1CSCC(=O)CSC[C@@H](C(N)=O)NC(=O)[C@@H]2CCCN2C(=O)[C@H](Cc2ccc(O)cc2)NC(=O)[C@H](CCC(N)=O)NC(=O)[C@H](CCCNC(=N)N)NC(=O)[C@H]([C@@H](C)O)NC1=O |  | 0.118 µM | 0.023 µM | 
13 | CCCCCCCCCCCCCCCC(=O)NCCCC[C@H](NC(=O)[C@H](CCC(=O)O)NC(=O)[C@H](Cc1ccc(O)cc1)NC(=O)[C@H](CCC(=O)O)NC(=O)COCCOCCNC(=O)c1ccc(-c2c3ccc(=O)cc-3oc3cc(O)ccc23)c(C(=O)O)c1)C(=O)N[C@@H](CCC(=O)O)C(=O)N[C@@H](Cc1ccc(O)cc1)C(=O)N[C@@H](CCC(=O)O)C(=O)NCCOCCOCC(=O)NCCCC[C@H](NC(=O)CNC(=O)[C@@H]1CSCC(=O)CSC[C@H](NC(=O)[C@@H]2CCCN2)C(=O)N[C@@H](CC(C)C)C(=O)N[C@@H](Cc2ccc(O)cc2)C(=O)N[C@@H](CCCC)C(=O)N[C@@H](C)C(=O)N[C@@H](CCCNC(N)=O)C(=O)N1)C(=O)NCC(N)=O | > 96 h |  |  | 
14 | CC(C)C[C@@H]1NC(=O)[C@H](Cc2ccc(O)cc2)NC(=O)[C@H](CC(C)C)NC(=O)[C@@H](NC(=O)[C@@H]2CCCN2)CSCC(=O)CSC[C@@H](C(=O)N[C@@H](CO)C(=O)O)NC(=O)[C@H](CCCNC(=N)N)NC(=O)[C@H](C)NC1=O (H-PCLYLARCS-OH; linker 2-8 via CH2COCH2) | < 0.0833 h | 0.039 µM |  | Ki (Kallikrein-7; cho): 0.016 µM
15 | CC(C)[C@@H]1NC(=O)[C@H](CCC(N)=O)NC(=O)[C@H](CCCNC(=N)N)NC(=O)[C@H]([C@@H](C)O)NC(=O)[C@@H](NC(=O)CN)CSCc2cccc(n2)CSC[C@@H](C(=O)N[C@@H](CCC(N)=O)C(=O)N[C@@H](CCC(N)=O)C(=O)N[C@H](C(=O)N2CCC[C@H]2C(=O)N[C@@H](C)C(=O)N[C@H]2CSCc3cccc(n3)CSC[C@@H](C(=O)N[C@@H](CC(N)=O)C(=O)O)NC(=O)[C@H](C)NC(=O)[C@H](CO)NC(=O)[C@@H]3CCCN3C2=O)[C@@H](C)O)NC1=O (H-GCTRQVCQQTPACPSACN-OH; linker 2-7, 13-17 via Pyridine(2,6-diCH2)) |  |  | 0.007 µM | 
16 | CC(C)C[C@@H]1NC(=O)[C@@H](NC(=O)[C@H](CCC(N)=O)NC(=O)[C@@H]2CCCN2C(=O)[C@H](CC(N)=O)NC(=O)[C@H](C)NC(=O)[C@@H]2CSCc3cccc(n3)CSC[C@H](NC(=O)[C@H](C)N)C(=O)N[C@@H]([C@@H](C)O)C(=O)N[C@@H](CCCNC(=N)N)C(=O)N[C@@H](CCC(=O)O)C(=O)N[C@@H](Cc3ccc(O)cc3)C(=O)N[C@@H](CC(N)=O)C(=O)N3CCC[C@H]3C(=O)N[C@@H](CCC(N)=O)C(=O)N2)CSCc2cccc(n2)CSC[C@@H](C(=O)N[C@@H](Cc2cnc[nH]2)C(=O)O)NC1=O |  |  | 0.0061 µM | 
